Columns and labels:
[1] = system: A549 human lung cancer cells; assay: MTT assay with cis-platin alone or combined with compound 49; type: cell-based; settings: A549, CisPt alone 10.0 μM, 72 h
Excerpt: Furthermore, the depletion of GSH has been documented to potentiate the effect of anticancer drugs. Glutathione plays an important role in cisPt detoxification, so depletion of GSH is believed to potentiate the cisPt-induced DNA damage and increase the chemosensitivity of cancer cells to this anticancer drug. Due to the GSH-depleting effect of compound 49, we performed a set of experiments with cis-platin (CisPt) alone or in combination with compound 49 (Figure 9). […] Simultaneous treatments with CisPt (10 μM) and 20 μM of compound 49 caused a 59% reduction in cell growth.
The MTT assay is a colorimetric method used to quantify the metabolic activity of cells. MTT (3-(4,5-di-methylthiazol-2-yl)2,5-diphenyltetrazolium bromide) (Sigma-Aldrich Chemie, Steinheim, Germany) is reduced by oxidoreductases in the cytosol of cells to light-absorbing formazan, the presence of which can be measured spectrophotometrically and determines the half-maximal inhibitory concentration (IC50). […]
(§1) We also incubated the cells with chloroquine at concentrations of 5–20 µM, which was added 1 h before the addition of the test substance, and cisplatin at concentrations of 3–10 µM. […] After 24 h, the absorbance was measured at a wavelength of 540 nm using an automated Cytation™ 3 Cell Imaging Multi-Mode Reader (Biotek, Winooski, VT, USA). […]

MCF10A = assay: MTT screening assay, MCF10A non-cancer cells; type: cell-based, human; settings: Homo sapiens, MCF-10A; 72 h incubation, MTT, non-cancer cells
Excerpt: (§2) The ability of newly synthesized indole phytoalexins to suppress cell proliferation was screened in vitro on eight cancer cell lines including human colorectal carcinoma (Caco-2 and HCT116), human cervical cancer (HeLa), human breast adenocarcinoma (MCF-7, MDA-MB-231), human alveolar adenocarcinoma (A549) and human leukemic T cell lymphoma (Jurkat), and two non-cancer cell lines (MCF-10A, Cos-7).
(§3) The cell lines used for this study were Caco-2 (human colorectal adenocarcinoma cell line, American Type Culture Collection, Manassas, VA, USA (ATCC)), HCT116 (human colorectal carcinoma cells European Collection of Authenticated Cell Cultures, Salisbury, UK (ECACC)), HeLa (human cervical tumor cells, ECACC), MCF-7 (human breast tumor cells, ECACC), MDA-MB-231 (human breast tumor cells, ATCC), A549 (human lung carcinoma cells, ATCC), BLM (human melanoma lung metastases, a gift from prof. K. Smetana, Institute of Anatomy, Charles University in Prague), Jurkat (human leukemia cell line, ECACC), Cos-7 (immortalized monkey kidney fibroblasts, ATCC) and MCF-10A (human mammary epithelial cells, ATCC). Caco-2, MCF-7, BLM, Cos-7 and A549 cells were cultured in Dulbecco’s Modified Eagle’s Medium (DMEM) with high glucose and sodium pyruvate (GE Healthcare, Piscataway, NJ, USA); HCT116 lines, HeLa, MDA-MB-231 and Jurkat were cultured in RPMI-1640 medium; and MCF10A cells were cultured in high glucose DMEM/F12 (Dulbecco’s Modified Eagle’s Medium F12). The media were enriched with 10% fetal bovine serum (FBS) and a 1% solution of a mixture of antibiotics and antimycotics 1× HyClone™ (GE Healthcare, Chicago, IL, USA). DMEM/F12 medium was supplemented with epidermal growth factor (EGF) (20 ng/mL final), hydrocortisone (0.5 μg/mL final) and insulin (10 μg/mL final) (Sigma-Aldrich Chemie, Steinheim, Germany). The cells were placed in an incubator at 37 °C with humidified air containing 5% CO2.
(§4) The MTT assay is a colorimetric method used to quantify the metabolic activity of cells. MTT (3-(4,5-di-methylthiazol-2-yl)2,5-diphenyltetrazolium bromide) (Sigma-Aldrich Chemie, Steinheim, Germany) is reduced by oxidoreductases in the cytosol of cells to light-absorbing formazan, the presence of which can be measured spectrophotometrically and determines the half-maximal inhibitory concentration (IC50). A549 cells were seeded in […] culture plates at a density of 5 × 10^3 per well. After 24 h of cultivation, the tested substance 49 was added in concentrations of 10, 50 and 100 µM.
We also incubated the cells with chloroquine at concentrations of 5–20 µM, which was added 1 h before the addition of the test substance, and cisplatin at concentrations of 3–10 µM. Cisplatin was added 24 h after the addition of 49. After 72 h of incubation, 10 µL of MTT (5 mg/mL) was added to each well. After 4 h, formazan crystals formed in the wells, which were dissolved in 100 uL of 10% SDS (sodium dodecyl sulfate). After 24 h, the absorbance was measured at a wavelength of 540 nm using an automated Cytation™ 3 Cell Imaging Multi-Mode Reader (Biotek, Winooski, VT, USA). These experiments were performed in three independent replicates.

MDA-MB-231 = assay: MTT screening assay, MDA-MB-231; type: cell-based; settings: Homo sapiens, 72 h incubation
Excerpt: as §2, §3
as §4, with “After 24 h of cultivation, the tested substance 49 was added in concentrations of 10, 50 and 100 µM.” left out
as §1

Caco-2 = assay: MTT screening assay, Caco-2; type: cell-based; settings: Homo sapiens, 72 h incubation
Excerpt: as §2, §3
as §4, with “After 24 h of cultivation, the tested substance 49 was added in concentrations of 10, 50 and 100 µM.” left out
as §1

Jurkat = assay: MTT screening assay, Jurkat; type: cell-based; settings: Homo sapiens, 72 h incubation
Excerpt: as §2, §3
as §4, with “After 24 h of cultivation, the tested substance 49 was added in concentrations of 10, 50 and 100 µM.” left out
as §1

MCF-7 = assay: MTT screening assay, MCF-7; type: cell-based; settings: Homo sapiens, MCF7, 72 h incubation
Excerpt: as §2, §3
as §4, with “After 24 h of cultivation, the tested substance 49 was added in concentrations of 10, 50 and 100 µM.” left out
as §1

HeLa = assay: MTT screening assay, HeLa; type: cell-based; settings: Homo sapiens, 72 h incubation
Excerpt: as §2, §3
as §4, with “After 24 h of cultivation, the tested substance 49 was added in concentrations of 10, 50 and 100 µM.” left out
as §1

Cos-7 = assay: MTT screening assay, Cos-7 non-cancer cells; type: cell-based, monkey; settings: Primates, 72 h incubation
Excerpt: as §2, §3
as §4, with “After 24 h of cultivation, the tested substance 49 was added in concentrations of 10, 50 and 100 µM.” left out
as §1

A549 = assay: MTT screening assay, A549; type: cell-based; settings: Homo sapiens, 72 h incubation
Excerpt: as §2, §3
as §4, with “After 24 h of cultivation, the tested substance 49 was added in concentrations of 10, 50 and 100 µM.” left out
as §1

HCT116 = assay: MTT screening assay, HCT116; type: cell-based; settings: Homo sapiens, HCT-116, 72 h incubation
Excerpt: as §2, §3
as §4, with “After 24 h of cultivation, the tested substance 49 was added in concentrations of 10, 50 and 100 µM.” left out
as §1

BLM = assay: MTT screening assay, BLM; type: cell-based; settings: Homo sapiens, 72 h incubation

Structure (SMILES)	reduction of cell growth [1] [%]	IC50 (MCF10A) [µM]	IC50 (MDA-MB-231) [µM]	IC50 (Caco-2) [µM]	IC50 (Jurkat) [µM]	IC50 (MCF-7) [µM]	IC50 (HeLa) [µM]	IC50 (Cos-7) [µM]	IC50 (A549) [µM]	melting point [°C]	IC50 (HCT116) [µM]	IC50 (BLM) [µM]
N.N.[Cl][Pt][Cl] [CisPt, cis-platin, reference compound]	39	–	–	–	–	–	–	–	–	–	–	–
CC(C)(C)OC(=O)n1cc(CN2C(=O)CSC2=Nc2ccc(N=C3SCC(=O)N3Cc3cn(C(=O)OC(C)(C)C)c4ccccc34)cc2)c2ccccc21 [Compound 51a, 2,2′-[1,4-phenylenebis(azanylylidene)]bis{3-[(1-(tert-butoxycarbonyl)-indol-3-yl)methyl]-1,3-thiazolidin-4-one}]	–	> 100	> 100	> 100	> 100	> 100	> 100	> 100	93.8 ± 1	196 to 198	97.7 ± 3.2	> 100
CC(C)(C)OC(=O)n1cc(CNC(=S)Nc2ccc(NC(=S)NCc3cn(C(=O)OC(C)(C)C)c4ccccc34)cc2)c2ccccc21 [Compound 48, N,N′-(1,4-phenylene)bis{N′-[1-(tert-butoxycarbonyl)indol-3-yl]methyl (thiourea)}]	–	67.3 ± 1.9	46 ± 2.5	51.7 ± 4.1	38.8 ± 2.9	77 ± 2.1	65.3 ± 5.3	78.3 ± 2.6	73.1 ± 7.3	204 to 206	51.9 ± 4.7	77.1 ± 4.3
CO[C@@H]1N(C(=O)OC(C)(C)C)c2ccccc2[C@]12CN=C(Nc1ccc(NC3=NC[C@]4(S3)c3ccccc3N(C(=O)OC(C)(C)C)[C@@H]4OC)cc1)S2 [Compound 52a, N,N′-bis[1-(tert-Butoxycarbonyl)-2-methoxy-spiro{indoline-3,5′-[4′,5′]dihydrothiazol-2′-yl}]benzene-1,4-diamine]	–	10.1 ± 6.2	8.3 ± 3.2	6.1 ± 2.1	6.1 ± 0.7	62.9 ± 3.9	6.4 ± 0.7	7.15 ± 0.3	5.95 ± 0.2	–	5.8 ± 0.3	7.4 ± 2.5
